Experiment: Sensory evaluation of taste quality (sweetness intensity, bitter taste, lingering sweetness) of sweet solutions by trained panel
Parameters: species or system human
Details: closer to PC sucrose
Method: Rebaudioside A (MORITA KAGAKU KOGYO CO., LTD.) was dissolved in filtered water (ion exchange water) to prepare a 720 ppm aqueous solution of rebaudioside A, which was used as the negative control (NC) solution.
Sucrose (Mitsui DM Sugar Co., Ltd.) was dissolved in filtered water to prepare a 7.5% aqueous solution of sucrose, which was used as the positive control (PC) solution.
Sweet solutions prepared by adding each compound (naringenin (Penta Manufacturing Company), hesperetin (Xi'an International Healthcare Factory Co., Ltd.), pinocembrin (Shaanxi Ebony Biotech Co., Ltd.), γ-Glu-Val-Gly (AJINOMOTO CO., INC.), γ-Glu-Abu (AJINOMOTO CO., INC.), yeast extract containing γ-Glu-Abu, γ-nonalactone (Sigma-Aldrich Co. LLC.)) to NC solution at the concentrations indicated in Tables 1 to 5 were evaluated by sensory evaluation.
The yeast extract containing γ-Glu-Abu used in this example was a powdered yeast extract containing 7 to 13% (w/w) γ-Glu-Abu based on dry weight, which was produced in accordance with the method described in WO 2012/046731 or “Savorboost (product name) yeast extract containing γ-Glu-Abu (Asahi Group Foods, Ltd.)”. In Tables 1-4, the concentration of the yeast extract containing γ-Glu-Abu added is shown as a value converted to the amount of γ-Glu-Abu in the yeast extract.
The taste quality of the PC solution (7.5% sucrose) was scored as 10.0 points, the taste quality of the NC solution (720 ppm rebaudioside A) was scored as 1.0 points, and the sensory evaluation score for each sample was evaluated in 0.1 point increments. The taste quality was evaluated including sweetness intensity, intensity of bitter taste, and intensity of lingering sweetness. Samples with an evaluation score of 3 or higher were deemed to have a taste quality-improving effect. The evaluation was performed by a panel of four people who had received sensory evaluation training, and was conducted by blind evaluation. The average evaluation score of all panel members was calculated and addition effect was examined.
In addition, to compare with the addition effect of a single component, a theoretical additive point was calculated and compared with the evaluation score when the components were added in combination to examine the presence or absence of a synergistic effect.

[1] = 5 ppm of the flavonoid in combination with 0.3 ppm γ-Glu-Val-Gly
[2] = flavonoid in combination with γ-Glu-Abu or a yeast extract containing γ-Glu-Abu

SMILES | taste quality of rebaudioside A [1] | taste quality of rebaudioside A [2] | taste quality of rebaudioside A (combination of pinocembrin and rebaudioside A alone)
O=C1C[C@@H](c2ccc(O)cc2)Oc2cc(O)cc(O)c21 [naringenin] | synergistically improved the taste quality of rebaudioside A | synergistically improved the taste quality of rebaudioside A | –
COc1ccc(C2CC(=O)c3c(O)cc(O)cc3O2)cc1O (stereo not shown) [hesperetin] | synergistically improved the taste quality of rebaudioside A | synergistically improved the taste quality of rebaudioside A | –
O=C1CC(c2ccccc2)Oc2cc(O)cc(O)c21 (stereo not shown) [pinocembrin] | synergistically improved the taste quality of rebaudioside A | synergistically improved the taste quality of rebaudioside A | improved the taste quality of rebaudioside A

— US20260182611A1, “SWEETENER COMPOSITION AND TASTE-IMPROVING AGENT” (AJINOMOTO CO., INC., priority 2023, published 2026)
